Experimental data as given in the supplement of paper PMC10307832.

Tests used:
Assay in all cases: relative viability (nuclei count vs DMSO), 5 days (fraction); higher = more cells survive
HCC-15 = test system: HCC-15
How it was run: (§1)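 Lung cancer cell lines, seeded in 1536-well plates, were treated the following day by pin tool with a single drug or with five library-drug doses (not always all listed) in √10 steps on top of a fixed anchor-drug dose. Cells were fixed and nuclei stained in one step after 5 days, and nuclei were counted. Relative viability is the nuclei count for treated wells divided by that for vehicle wells, reported as medians of duplicate plates.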

NCI-H650 = test system: NCI-H650
How it was run: as §1

SK-LU-1 = test system: SK-LU-1
How it was run: as §1

NCI-H1915 = test system: NCI-H1915
How it was run: as §1

NCI-H1648 = test system: NCI-H1648
How it was run: as §1

NCI-H1975 = test system: NCI-H1975
How it was run: as §1

NCI-H1793 = test system: NCI-H1793
How it was run: as §1

HARA = test system: HARA
How it was run: as §1

Row | Compound | relative viability (HCC-15; first compound 0.2 µM) | relative viability (HCC-15; first compound 0.6325 µM) | relative viability (HCC-15; first compound 2 µM) | relative viability (HCC-15; first compound 6.325 µM) | relative viability (HCC-15; first compound 20 µM) | relative viability (NCI-H650; first compound 0.2 µM) | relative viability (NCI-H650; first compound 0.6325 µM) | relative viability (NCI-H650; first compound 2 µM) | relative viability (NCI-H650; first compound 6.325 µM) | relative viability (NCI-H650; first compound 20 µM) | relative viability (SK-LU-1; first compound 0.2 µM) | relative viability (SK-LU-1; first compound 0.6325 µM) | relative viability (SK-LU-1; first compound 2 µM) | relative viability (SK-LU-1; first compound 6.325 µM) | relative viability (SK-LU-1; first compound 20 µM) | relative viability (NCI-H1915; first compound 0.2 µM) | relative viability (NCI-H1915; first compound 0.6325 µM) | relative viability (NCI-H1915; first compound 2 µM) | relative viability (NCI-H1915; first compound 6.325 µM) | relative viability (NCI-H1915; first compound 20 µM) | relative viability (NCI-H1648; first compound 0.2 µM) | relative viability (NCI-H1648; first compound 2 µM) | relative viability (NCI-H1648; first compound 20 µM) | relative viability (NCI-H1975; first compound 0.2 µM) | relative viability (NCI-H1975; first compound 0.6325 µM) | relative viability (NCI-H1975; first compound 2 µM) | relative viability (NCI-H1975; first compound 6.325 µM) | relative viability (NCI-H1975; first compound 20 µM) | relative viability (NCI-H1793; first compound 0.2 µM) | relative viability (NCI-H1793; first compound 0.6325 µM) | relative viability (NCI-H1793; first compound 6.325 µM) | relative viability (NCI-H1793; first compound 20 µM) | relative viability (HARA; first compound 0.2 µM) | relative viability (HARA; first compound 0.6325 µM) | relative viability (HARA; first compound 2 µM) | relative viability (HARA; first compound 6.325 µM) | relative viability (HARA; first compound 20 µM)
1 | COCC1(CO)C(=O)C2CCN1CC2 (stereo not drawn) [PRIMA-1MET] + CC(=O)Nc1cccc(-n2c(=O)n(C3CC3)c(=O)c3c(Nc4ccc(I)cc4F)n(C)c(=O)c(C)c32)c1 [Trametinib] (partner 0.02 µM) | 0.37 | 0.346 | 0.37 | 0.328 | 0.31 | 0.58 | 0.965 | 0.762 | 0.833 | 0.0675 | 0.308 | 0.488 | 0.35 | 0.382 | 0.528 | 0.166 | 0.246 | 0.248 | 0.218 | 0.31 | 0.396 | 0.445 | 0.553 | 0.362 | 0.232 | 0.277 | 0.351 | 0.457 | 0.365 | 0.41 | 0.361 | 0.517 | 0.403 | 0.754 | 0.647 | 0.529 | 0.736
2 | COCC1(CO)C(=O)C2CCN1CC2 (stereo not drawn) [PRIMA-1MET] + CC(=O)c1c(C)c2cnc(Nc3ccc(N4CCNCC4)cn3)nc2n(C2CCCC2)c1=O [Palbociclib] (partner 0.5 µM) | 0.677 | 0.407 | 0.687 | 0.735 | 0.652 | 0.317 | 0.289 | 0.367 | 0.338 | 0.0905 | 0.395 | 0.385 | 0.255 | 0.376 | 0.32 | 0.507 | 0.496 | 0.451 | 0.518 | 0.523 | 0.251 | 0.283 | 0.283 | 0.513 | 0.483 | 0.409 | 0.693 | 0.582 | 0.326 | 0.32 | 0.332 | 0.331 | 0.252 | 0.318 |  | 0.286 | 0.261
